Measured values published in ChEMBL document CHEMBL3351515, “α-Hexylcinnamaldehyde inhibits the genotoxicity of environmental pollutants in the bacterial reverse mutation assay” (2014).

Key:
Salmonella typhimurium [1] = assay: Antimutagenic activity against 2-aminoanthracene-induced revertant colonies in Salmonella typhimurium TA100 assessed as number of revertant colonies measured cotreatment at 900 uM (reference value: 457.9 +/- 16.74) in presence of mammalian S9 fraction; format: functional, Salmonella enterica subsp. enterica serovar Typhimurium
Salmonella typhimurium [2] = assay: Antimutagenic activity against 2-aminoanthracene-induced revertant colonies in Salmonella typhimurium TA100 assessed as number of revertant colonies measured pretreatment at 900 uM (reference value: 481.3 +/- 5.3) in presence of mammalian S9 fraction; format: functional, Salmonella enterica subsp. enterica serovar Typhimurium
Salmonella typhimurium [3] = assay: Antimutagenic activity against 1-nitropyrene-induced revertant colonies in Salmonella typhimurium TA98NR assessed as inhibition of mutagenicity measured at 90 to 180 uM; format: functional, Salmonella enterica subsp. enterica serovar Typhimurium
Escherichia coli [4] = assay: Antimutagenic activity against methyl methansulfonate-induced revertant colonies in Escherichia coli WP2uvrA assessed as number of revertant colonies measured pretreatment at 180 uM (reference value: 466.7 +/- 40.4) in absence of mammalian S9 fraction; format: functional
Escherichia coli [5] = assay: Antimutagenic activity against methyl methansulfonate-induced revertant colonies in Escherichia coli WP2uvrA assessed as number of revertant colonies measured cotreatment at 900 uM (reference value: 485.3 +/- 17.5) in absence of mammalian S9 fraction; format: functional
Salmonella typhimurium [6] = assay: Antimutagenic activity against 1-nitropyrene-induced revertant colonies in Salmonella typhimurium TA98 1,8 DNP assessed as inhibition of mutagenicity measured at 900 uM; format: functional, Salmonella enterica subsp. enterica serovar Typhimurium; settings: Salmonella enterica
Salmonella typhimurium [7] = assay: Antimutagenic activity against 1-nitropyrene-induced revertant colonies in Salmonella typhimurium TA98 assessed as inhibition of mutagenicity measured at 90 to 180 uM; format: functional, Salmonella enterica subsp. enterica serovar Typhimurium
Salmonella typhimurium [8] = assay: Antimutagenic activity against sodium azide-induced revertant colonies in Salmonella typhimurium TA100 assessed as number of revertant colonies measured post-treatment at 9 uM (reference value: 1909 +/- 29.7) in absence of mammalian S9 fraction; format: functional, Salmonella enterica subsp. enterica serovar Typhimurium
Salmonella typhimurium [9] = assay: Antimutagenic activity against sodium azide-induced revertant colonies in Salmonella typhimurium TA100 assessed as number of revertant colonies measured pretreatment at 18 uM (reference value: 1968 +/- 46.9) in absence of mammalian S9 fraction; format: functional, Salmonella enterica subsp. enterica serovar Typhimurium
Salmonella typhimurium [10] = assay: Antimutagenic activity against 4-nitroquinoline N-oxide-induced revertant colonies in Salmonella typhimurium TA98 assessed as inhibition of mutagenicity measured at 900 uM; format: functional, Salmonella enterica subsp. enterica serovar Typhimurium; settings: Salmonella enterica
Salmonella typhimurium [11] = assay: Antimutagenic activity against 1-nitropyrene-induced revertant colonies in Salmonella typhimurium TA98NR assessed as inhibition of mutagenicity measured at 9 to 18 uM; format: functional, Salmonella enterica subsp. enterica serovar Typhimurium
Escherichia coli [12] = assay: Antimutagenic activity against 2-aminoanthracene-induced revertant colonies in Escherichia coli WP2uvrA assessed as number of revertant colonies measured cotreatment at 900 uM (reference value: 366 +/- 10.3) in presence of mammalian S9 fraction; format: functional
Salmonella typhimurium [13] = assay: Antimutagenic activity against 4-nitroquinoline N-oxide-induced revertant colonies in Salmonella typhimurium TA98 assessed as inhibition of mutagenicity measured at 9 to 18 uM; format: functional, Salmonella enterica subsp. enterica serovar Typhimurium
Salmonella typhimurium [14] = assay: Antimutagenic activity against sodium azide-induced revertant colonies in Salmonella typhimurium TA100 assessed as number of revertant colonies measured post-treatment at 18 uM (reference value: 1909 +/- 29.7) in absence of mammalian S9 fraction; format: functional, Salmonella enterica subsp. enterica serovar Typhimurium
Escherichia coli [15] = assay: Antimutagenic activity against 2-aminoanthracene-induced revertant colonies in Escherichia coli WP2uvrA assessed as number of revertant colonies measured post-treatment at 18 uM (reference value: 308 +/- 4) in presence of mammalian S9 fraction; format: functional
Salmonella typhimurium [16] = assay: Antimutagenic activity against sodium azide-induced revertant colonies in Salmonella typhimurium TA100 assessed as number of revertant colonies measured pretreatment at 9 uM (reference value: 1968 +/- 46.9) in absence of mammalian S9 fraction; format: functional, Salmonella enterica subsp. enterica serovar Typhimurium
Escherichia coli [17] = assay: Antimutagenic activity against methyl methansulfonate-induced revertant colonies in Escherichia coli WP2uvrA assessed as number of revertant colonies measured post-treatment at 900 uM (reference value: 726.7 +/- 12.7) in absence of mammalian S9 fraction; format: functional
Salmonella typhimurium [18] = assay: Antimutagenic activity against 2-nitrofluorene-induced revertant colonies in Salmonella typhimurium TA98 assessed as inhibition of mutagenicity measured at 90 to 180 uM; format: functional, Salmonella enterica subsp. enterica serovar Typhimurium
Salmonella typhimurium [19] = assay: Antimutagenic activity against sodium azide-induced revertant colonies in Salmonella typhimurium TA100 assessed as number of revertant colonies measured cotreatment at 900 uM (reference value: 1588 +/- 55.6) in absence of mammalian S9 fraction; format: functional, Salmonella enterica subsp. enterica serovar Typhimurium
Salmonella typhimurium [20] = assay: Antimutagenic activity against sodium azide-induced revertant colonies in Salmonella typhimurium TA100 assessed as number of revertant colonies measured cotreatment at 90 uM (reference value: 1588 +/- 55.6) in absence of mammalian S9 fraction; format: functional, Salmonella enterica subsp. enterica serovar Typhimurium
Salmonella typhimurium [21] = assay: Antimutagenic activity against 2-aminoanthracene-induced revertant colonies in Salmonella typhimurium TA100 assessed as number of revertant colonies measured cotreatment at 180 uM (reference value: 457.9 +/- 16.74) in presence of mammalian S9 fraction; format: functional, Salmonella enterica subsp. enterica serovar Typhimurium
Salmonella typhimurium [22] = assay: Antimutagenic activity against 2-aminoanthracene-induced revertant colonies in Salmonella typhimurium TA100 assessed as number of revertant colonies measured pretreatment at 90 uM (reference value: 481.3 +/- 5.3) in presence of mammalian S9 fraction; format: functional, Salmonella enterica subsp. enterica serovar Typhimurium
Escherichia coli [23] = assay: Antimutagenic activity against 2-aminoanthracene-induced revertant colonies in Escherichia coli WP2uvrA assessed as number of revertant colonies measured pretreatment at 900 uM (reference value: 178.7 +/- 11.8) in presence of mammalian S9 fraction; format: functional
Escherichia coli [24] = assay: Antimutagenic activity against 2-aminoanthracene-induced revertant colonies in Escherichia coli WP2uvrA assessed as number of revertant colonies measured post-treatment at 180 uM (reference value: 308 +/- 4) in presence of mammalian S9 fraction; format: functional
Escherichia coli [25] = assay: Antimutagenic activity against 2-aminoanthracene-induced revertant colonies in Escherichia coli WP2uvrA assessed as number of revertant colonies measured post-treatment at 900 uM (reference value: 308 +/- 4) in presence of mammalian S9 fraction; format: functional
Escherichia coli [26] = assay: Antimutagenic activity against methyl methansulfonate-induced revertant colonies in Escherichia coli WP2uvrA assessed as number of revertant colonies measured pretreatment at 900 uM (reference value: 466.7 +/- 40.4) in absence of mammalian S9 fraction; format: functional
Escherichia coli [27] = assay: Antimutagenic activity against 2-aminoanthracene-induced revertant colonies in Escherichia coli WP2uvrA assessed as number of revertant colonies measured pretreatment at 90 uM (reference value: 178.7 +/- 11.8) in presence of mammalian S9 fraction; format: functional
Escherichia coli [28] = assay: Antimutagenic activity against methyl methansulfonate-induced revertant colonies in Escherichia coli WP2uvrA assessed as number of revertant colonies measured cotreatment at 9 uM (reference value: 485.3 +/- 17.5) in absence of mammalian S9 fraction; format: functional
Salmonella typhimurium [29] = assay: Antimutagenic activity against 1-nitropyrene-induced revertant colonies in Salmonella typhimurium TA98 assessed as inhibition of mutagenicity measured at 900 uM; format: functional, Salmonella enterica subsp. enterica serovar Typhimurium; settings: Salmonella enterica
Salmonella typhimurium [30] = assay: Antimutagenic activity against 2-nitrofluorene-induced revertant colonies in Salmonella typhimurium TA98 assessed as inhibition of mutagenicity measured at 9 to 18 uM; format: functional, Salmonella enterica subsp. enterica serovar Typhimurium
Escherichia coli [31] = assay: Antimutagenic activity against methyl methansulfonate-induced revertant colonies in Escherichia coli WP2uvrA assessed as number of revertant colonies measured pretreatment at 9 uM (reference value: 466.7 +/- 40.4) in absence of mammalian S9 fraction; format: functional

CCCCCC/C(C=O)=C\c1ccccc1
Activity (Salmonella typhimurium [1]): 347 | Activity (Salmonella typhimurium [2]): 365.3 | inhibition (INH) (Salmonella typhimurium [3]): 25% | Activity (Escherichia coli [4]): 376 | Activity (Escherichia coli [5]): 402.7 | inhibition at 900 µM (Salmonella typhimurium [6]): > 40% | inhibition (INH) (Salmonella typhimurium [7]): 25% | Activity (Salmonella typhimurium [8]): 1888 | Activity (Salmonella typhimurium [9]): 1861 | inhibition at 900 µM (Salmonella typhimurium [10]): > 40% | inhibition (INH) (Salmonella typhimurium [11]): <25% | Activity (Escherichia coli [12]): 293.5 | inhibition (INH) (Salmonella typhimurium [13]): <25% | Activity (Salmonella typhimurium [14]): 1867 | Activity (Escherichia coli [15]): 292 | Activity (Salmonella typhimurium [16]): 1877 | Activity (Escherichia coli [17]): 474 | inhibition (INH) (Salmonella typhimurium [18]): 25% | Activity (Salmonella typhimurium [19]): 1451 | Activity (Salmonella typhimurium [20]): 1477 | Activity (Salmonella typhimurium [21]): 404 | Activity (Salmonella typhimurium [22]): 454.7 | Activity (Escherichia coli [23]): 141.3 | Activity (Escherichia coli [24]): 302.7 | Activity (Escherichia coli [25]): 304.3 | Activity (Escherichia coli [26]): 365.3 | Activity (Escherichia coli [27]): 152.3 | Activity (Escherichia coli [28]): 484 | inhibition at 900 µM (Salmonella typhimurium [29]): > 40% | inhibition (INH) (Salmonella typhimurium [30]): <25% | Activity (Escherichia coli [31]): 458.7
